Measured values as given in patent US9021738B2, “Control of termites, fire ants and carpenter ants” (priority 2008, dated 2015).
Read-outs that look alike come from different tables or passages of the source.

Columns and labels:
drywood termites = conditions: Petri dish assays, as claimed in prior art; cited from earlier work
[1] = test system: Formosan subterranean termites; format: in vivo, Coptotermes formosanus; conditions: for termites killed: 25 mg/liter volume
Description: (§1) Formosan subterranean termites were collected from bucket traps placed in City Park, New Orleans, La. Altogether five colonies designated 1314, 1559, 1732, 1743 and 1756 were used in the tests. After collection, the termites (primarily workers and soldiers) were transferred to plastic boxes with moist spruce slats. The boxes were stored in an incubator maintained at 28° C., 65% RH, and constant darkness. Termites were used within one month of their collection.
(§2) Vapor Toxicity Under Subterranean Conditions. This test was also conducted in the one liter Qorpak™ bottles. A 35 by 40 by 7 mm piece of moist spruce was placed at the bottom of the bottle and covered with 40 g fine-sifted black soil. One hundred termite workers were released into each bottle and allowed to tunnel under the soil and into the wood. After 3 days, a test chemical was applied to a filter paper and suspended from the cap-liner. The chemicals were tested at 10, 25 and 50 mg. […] The test was conducted with termites from 3 colonies and replicated 3 times.
Because in their natural environment the subterranean termites are not expected to be exposed to a chemical in open space, we conducted the next test by placing 100 workers termites in spruce slats covered with a layer of soil, all placed in the same glass bottles. Tests were conducted at 25 mg dose. After 2 days tetrahydrocarvone (both d- and l-isomers) caused 100% mortality.

fire ants = assay: Vapor Toxicity Under Subterranean Conditions with fire ants; format: in vivo, Solenopsis invicta; conditions: 25 mg, in 24 hours
Description: as §2
The same Vapor Toxicity Under Subterranean Conditions test as described in paragraph [0023] was conducted except that fire ants were employed instead of termites.

[2] = test system: Formosan subterranean termites; assay: Assay for Vapor Toxicity; format: in vivo, Coptotermes formosanus
Description: as §1
Assay for Vapor Toxicity. This test was conducted in 960 ml wide-mouth clear Qorpak™ (All-Pak, Inc.) bottles with PTFE lined caps. A 60 mm diameter glass Petri dish with a moist filter paper and 50 termite workers was placed at the bottom of each bottle. The test chemical was applied to a 1 cm diameter filter paper and suspended with an insect pin from the cap-liner. Each chemical was initially tested at 1 mg in the one liter bottle then at 0.1 and 0.5 mg. Since 0.1 and 0.5 mg doses caused very low and 100% mortality respectively, the final test was carried out at 0.25 mg. Each chemical was tested with different termite colonies and replicated three times. The bottles were placed in the incubator. Mortality was recorded after 1, 2 and 3 days by quickly taking the glass Petri dish with the termites out of the bottle (with a pair of long forceps) and replacing it after removing the dead workers.

carpenter ants = assay: Sealed jar test on carpenter ants; format: in vivo, Camponotus chromaoides; conditions: one drop (approximately 30 mg) on filter paper in sealed 16 oz jar, within 24 hours
Description: One drop (approximately 30 mg) of tetrahydro l-carvone test compound was applied to filter paper within a sealed jar (16 oz glass jar, 3½ inch diameter, 3⅞ inch high with plastic lids) containing ten carpenter (Camponotus chromaoides) ants per replicate with there being five replicates. Five negative controls with no test compounds were also run. The tetrahydro-1-carvone provided 100% mortality to the carpenter ants within 24 hours while the control produced 6% mortality over the same 24 hour period.

SMILES	mortality of drywood and other termites (drywood termites)	efficacy against termites in soil and wood [1]	further results
C=C(C)C1CC=C(C)[C@@H](O)C1 (stereo partly shown) [carveol]	high mortality	totally ineffective	–
CC(C)=CCCC(C)CC=O (stereo not shown) [citronellal]	high mortality	totally ineffective	–
C=C(C)[C@@H]1CC[C@@H](C)C(=O)C1 [dihydro-l-carvone]	–	–	termites killed ([1]; in 48 hours): 100%
CC(C)=CCC/C(C)=C/CO [geraniol]	high mortality	totally ineffective	–
Cc1ccc(C(C)C)cc1 [p-cymene]	high mortality	totally ineffective	–
CC(C)[C@@H]1CC[C@@H](C)C(=O)C1 [tetrahydro-d-carvone]	–	–	fire ants killed (fire ants): 100%; termites killed ([2]; 0.25 mg/liter volume, in 3 days): 75%; termites killed ([2]; 0.5 mg/liter volume, in 1 day): 100%
CC(C)[C@@H]1CC[C@@H](C)C(=O)C1 [tetrahydro-l-carvone]	–	–	termites killed ([1]; in 24 hrs): 100%; termites killed ([2]; 1 mg per liter volume, in 1 day): 100%; mortality to carpenter ants (carpenter ants): 100%
CC(C)[C@@H]1CC[C@@H](C)C(=O)C1 [tetrahydrocarvone]	–	–	mortality ([1]; 25 mg dose, after 2 days, 100 worker termites in spruce slats covered with soil): 100%
